According to patent publication US5716971A, “Pyridine derivatives, their production and use” (Takeda Chemical Industries, Ltd., priority 1993, dated 1998):
Where two headings read alike, the source gives them in different places.

Legend:
[1] = tested on: specimen of rat aorta; assay: Vasorelaxation activity in a specimen of rat aorta: contraction caused by TEA and BaCl2; conditions: TEA (30-45 mM) and BaCl2 (0.3 mM) contraction, read-out: constriction inhibitory ratio
Procedure: Vasorelaxation activity in a specimen of rat aorta Effects on contraction caused by tetraethylammonium chloride (TEA) and barium chloride (BaCl2)
(§1) Male Wister rats (10 to 13 week old were employed for the experiment. After dehematization, the aorta was excised and a ring specimen (5 mm length) was prepared. The specimen was suspended in a bath filled with oxygenated (95% O2 -5%CO2) Krebs solution (36° C.). The ring specimen was fixed at one end and the other end was connected to a transducer (Nippon Koden) for recording tension to determine the tension. After a stabilization period of one hour, TEA (30-45 mM) and BaCl2 (0.3 mM) were added to the bath to cause vasoconstriction. After the constriction had reached a steady state (after about 15 minutes), a test compound was added to the bath and its relaxation activity was measured.

[2] = tested on: specimen of rat aorta; assay: Vasorelaxation activity in a specimen of rat aorta: contraction caused by KCl; conditions: read-out: constriction inhibitory ratio
Procedure: as §1
Vasorelaxation activity in a specimen of rat aorta Effects on contraction caused by potassium chloride (KCl)
The same experiment was conducted as in Experiment 1, excepting the use of KCl ([…]) instead of TEA and BaCl2

[3] = tested on: anesthetized dogs; assay: Action of increasing coronary blood flow in anesthetized dogs (administration into coronary artery); type: in vivo, dog; conditions: injected into coronary artery, anesthetized Beagle dogs
Procedure: Action of increasing coronary blood flow in anesthetized dogs (Administration into coronary artery) Method: Beagle dogs (10 to 12 kg body weight) were anesthetized with pentobarbital and subjected to thoractomy under artificial respiration. A by-pass fitted with an electromagnetic flowmeter (Nippon Koden) was prepared between the left coronary artery and left carotid artery,and the volume of coronary blood flow was measured. […]
Maximal change rate against the value measured before the administration (% of basal flow) and the duration period [shown in terms of the time (T1/2) in which the activity is reduced to half] are shown in Table 67. As a result, it is apparent that the compounds of this invention show action of increasing coronary blood flow.

[4] = tested on: Spontaneously hypertensive rats; assay: Hypotensive activity in rats (Tail Cuff Method), oral; type: in vivo; conditions: Rattus norvegicus, SHR
Procedure: Hypotensive activity in rats (Tail Cuff Method)
Spontaneously hypertensive rats (SHR, male, 20 to 23 week old) were warmed up to 36° C. The blood pressure at the tail aorta was measured by the tail cuff method. The blood pressure was measured three times, i.e. before oral administration of the test compound, two hours after the administration and five hours after the administration. The test compound was orally administered in the state of a suspension in gum arabic.
Maximal, hypotensive effect against the blood pressure before the administration is shown as % pre. in Table 66. As a result, it is apparent that the compounds of this invention show hypotensive activity.

[5] = after 2 hours, read-out: Maximal hypotensive effect against blood pressure before administration (% pre.), after 2 hours
[6] = after 5 hours, read-out: Maximal hypotensive effect against blood pressure before administration (% pre.), after 5 hours

| SMILES | inhibition at 1 µM [1] | inhibition at 3 µM [1] | inhibition at 1 µM [2] | inhibition at 3 µM [2] | duration (T1/2): time in which the activity is reduced to half ([3]; 30 ug/day) | also measured |
| --- | --- | --- | --- | --- | --- | --- |
| CC(C)(C)O/N=C(/c1cc(Br)ccc1O)c1ncccc1O [Compound 6, (Z)-2-(5-bromo-2-hydroxybenzoyl)-3-hydroxypyridine O-t-butyloxime] | 62% | 82% | 5% | 17% | 1.5 min | – |
| CC(C)(C)ON=C(c1cc(Cl)ccc1O)c1ncccc1O [Compound 14] | 71% | 90% | 2% | 11% | 1.6 min | – |
| Cc1ccc(O)c(/C(=N/OC(C)(C)C)c2ncccc2O)c1 [Compound 23, (Z)-2-(2-hydroxy-5-methylbenzoyl)-3-hydroxypyridine O-t-butyloxime] | – | – | – | – | 1.2 min | – |
| CC(C)(C)O/N=C(/c1cc([N+](=O)[O-])ccc1O)c1ncccc1O [Compound 27, (Z)-2-(2-hydroxy-5-nitrobenzoyl)-3-hydroxypyridine O-t-butyloxime] | – | – | – | – | 2.1 min | – |
| CC(C)(C)O/N=C(/c1cc(Cl)c(Cl)cc1O)c1ncccc1O [Compound 32, (Z)-2-(4,5-dichloro-2-hydroxybenzoyl)-3-hydroxypyridine O-t-butyloxime] | 87% | 100% | -2% | 11% | 3.0 min | inhibition in vivo at 10 mg/kg [4, 5]: 19%; inhibition in vivo at 10 mg/kg [4, 6]: 18% |
| CC(C)(C)O/N=C(/c1cc(F)c(F)cc1O)c1ncccc1O [Compound 34, (Z)-2-(4,5-difluoro-2-hydroxybenzoyl)-3-hydroxypyridine O-t-butyloxime] | 54% | 59% | 4% | 18% | 3.7 min | inhibition in vivo at 10 mg/kg [4, 5]: 27%; inhibition in vivo at 10 mg/kg [4, 6]: 10% |
| CC(C)(C)O/N=C(/c1cc(Cl)c(F)cc1O)c1ncccc1O [Compound 36, (Z)-2-(5-chloro-4-fluoro-2-hydroxybenzoyl)-3-hydroxypyridine O-t-butyloxime] | 81% | 80% | 0% | 4% | 4.8 min | inhibition in vivo at 10 mg/kg [4, 5]: 42%; inhibition in vivo at 10 mg/kg [4, 6]: 30% |
| COc1cc(O)c(/C(=N/OC(C)(C)C)c2ncccc2O)cc1Br [Compound 43] | – | 63% | – | 0% | 1.7 min | inhibition at 10 µM [1]: 75%; inhibition at 10 µM ([2]; 10 μM): 5% |
| CC(C)(C)O/N=C(/c1cc(F)c(Cl)cc1O)c1c(O)ccc[n+]1[O-] [Compound 56, (Z)-2-(4-chloro-5-fluoro-2-hydroxybenzoyl)-3-hydroxypyridine N-oxide O-t-butyloxime] | 100% | – | – | – | 27.3 min | inhibition in vivo at 10 mg/kg [4, 5]: 51%; inhibition in vivo at 10 mg/kg [4, 6]: 42% |
| CC(C)(C)O/N=C(/c1cc(F)c(F)cc1O)c1c(O)ccc[n+]1[O-] [Compound 59, (Z)-2-(4,5-difluoro-2-hydroxybenzoyl)-3-hydroxypyridine N-oxide O-t-butyloxime] | 6% | 100% | – | – | 15.1 min | inhibition in vivo at 1 mg/kg [4, 5]: 22%; inhibition in vivo at 1 mg/kg [4, 6]: 10%; inhibition in vivo at 10 mg/kg [4, 5]: 45%; inhibition in vivo at 10 mg/kg [4, 6]: 54% |
| Cc1cc(O)c(/C(=N/OC(C)(C)C)c2ncccc2O)cc1Br [Compound 61, (Z)-2-(5-bromo-2-hydroxy-4-methylbenzoyl)-3-hydroxypyridine O-t-butyloxime] | 54% | 100% | 4% | 7% | 2.0 min | – |
| CC(C)(C)O/N=C(/c1cc(Cl)c(Cl)cc1O)c1cccc[n+]1[O-] [Compound 95, (Z)-2-(4,5-dichloro-2-hydroxybenzoyl)pyridine N-oxide O-t-butyloxime] | 59% | 71% | 3% | 12% | 4.0 min | – |
| CC(C)(C)O/N=C(/c1cc(F)c(F)cc1O)c1cccc[n+]1[O-] [Compound 100, (Z)-2-(4,5-difluoro-2-hydroxybenzoyl)pyridine N-oxide O-t-butyloxime] | 52% | 100% | 4% | 11% | 3.3 min | – |
| CC(C)(C)O/N=C(/c1cc(F)c(Cl)cc1O)c1cccc[n+]1[O-] [Compound 103, (Z)-2-(4-chloro-5-fluoro-2-hydroxybenzoyl)pyridine N-oxide O-t-butyloxime] | – | 29% | – | – | 3.0 min | inhibition at 10 µM [1]: 47% |
| CC(C)(C)O/N=C(/c1cc(Br)c(C#N)cc1O)c1ncccc1O [Compound 128, (Z)-2-(5-bromo-4-cyano-2-hydroxybenzoyl)-3-hydroxy pyridine O-t-butyloxime] | 100% | – | – | – | 6.2 min | – |
| CC(C)(C)O/N=C(/c1cc(Br)c(C#N)cc1O)c1c(O)ccc[n+]1[O-] [Compound 129, (Z)-2-(5-bromo-4-cyano-2-hydroxybenzoyl)-3-hydroxy pyridine N-oxide O-t-butyloxime] | 100% | – | 18% | – | – | duration (T1/2): time in which the activity is reduced to half ([3]; 10 μg/dog administration): 42.9 min |
| CC(C)(C)O/N=C(/c1cc(C#N)c(Cl)cc1O)c1ncccc1O [Compound 130, (Z)-2-(4-chloro-5-cyano-2-hydroxybenzoyl)-3-hydroxy pyridine O-t-butyloxime] | 100% | – | – | – | 4.4 min | – |
| CC(C)(C)O/N=C(/c1cc(C#N)c(Cl)cc1O)c1c(O)ccc[n+]1[O-] [Compound 132, (Z)-2-(4-chloro-5-cyano-2-hydroxybenzoyl)-3-hydroxy pyridine N-oxide O-t-butyloxime] | 100% | – | – | – | 71.8 min | – |
| CC(C)(C)O/N=C(/c1cc(Br)c(F)cc1O)c1c(OC(=O)C(C)(C)C)ccc[n+]1[O-] [Compound 171, (Z)-2-(5-bromo-4-fluoro-2-hydroxybenzoyl)-3-pivaloyloxypyridine N-oxide O-t-butyloxime] | – | – | – | – | – | duration (T1/2): time in which the activity is reduced to half ([3]; 10 μg/dog administration): 23.4 min |
| CC(C)(C)O/N=C(/c1cc(Cl)c(C#N)cc1O)c1ncccc1O [Compound 174, (Z)-2-(5-chloro-4-cyano-2-hydroxybenzoyl)-3-hydroxy pyridine O-t-butyloxime] | 100% | – | – | – | – | duration (T1/2): time in which the activity is reduced to half ([3]; 10 μg/dog administration): 4.4 min |
| CC(C)(C)O/N=C(/c1cc(Cl)c(C#N)cc1O)c1c(O)ccc[n+]1[O-] [Compound 175, (Z)-2-(5-chloro-4-cyano-2-hydroxybenzoyl)-3-hydroxy pyridine N-oxide O-t-butyloxime] | 100% | – | 4% | – | – | duration (T1/2): time in which the activity is reduced to half ([3]; 10 μg/dog administration): 34.3 min |
| CC(C)(C)O/N=C(/c1cc(F)c(C#N)cc1O)c1ncccc1O [Compound 176, (Z)-2-(4-cyano-5-fluoro-2-hydroxybenzoyl)-3-hydroxyoyridine O-t-butyloxime] | 100% | – | – | – | – | duration (T1/2): time in which the activity is reduced to half ([3]; 10 μg/dog administration): 1.8 min |
| CC(C)(C)O/N=C(/c1cc(F)c(C#N)cc1O)c1c(O)ccc[n+]1[O-] [Compound 177, (Z)-2-(4-cyano-5-fluoro-2-hydroxybenzoyl)-3-hydroxy pyridine N-oxide O-t-butyloxime] | 50% | 100% | 0% | 0% | – | duration (T1/2): time in which the activity is reduced to half ([3]; 10 μg/dog administration): 9.8 min |
